Read-outs that look alike come from different tables or passages of the source.

The target of test [1] is T1, GST-tagged full-length FAK enzyme (PTK2) (Homo sapiens, UniProt Q05397).
T1 construct: GST-tagged full-length FAK enzyme (PTK2, Invitrogen PV4085); GST; purchased Invitrogen PV4085
Briefly: Biochemical Omnia Assay (FAK). The protocol:
Biochemical Omnia Assay Protocol
The Omnia Assay (Invitrogen) has been optimized for GST-tagged full-length FAK enzyme (PTK2, Invitrogen PV4085).
All compound concentrations were assayed in duplicate. Initial compound dilutions were prepared at 100× concentration in 100% DMSO from a 10 mM stock solution. Compounds were further diluted 1:25 in assay buffer resulting in a 4× concentrated solution.
In running the assay, 5 μL of the above 4× concentrated compound solution (or 4% DMSO for positive controls) was added to the assay plate followed by 5 μL of a solution containing peptide (40 μM) and ATP (200 μM) in assay buffer. The reaction was initiated by the addition of 10 μL of FAK (50 nM) in assay buffer, or assay buffer alone for negative controls. The increase in fluorescence due to peptide phosphorylation was monitored continuously as a function of time using a Spectramax M5 plate reader (Molecular Devices) equipped with SoftMax Pro 5.2 software.
IC50 values were determined from the slopes of the linear progress curves by non-linear curve-fitting using GraphPad Prism 5 (GraphPad Software, Inc.).

Test [2] deals with T2, FAK (Homo sapiens, UniProt Q05397).
T2 construct: endogenous in cells; host or cells: U87MG glioblastoma cells (ATCC HTB-14)
Briefly: Cell-based capture ELISA for inhibition of FAK autophosphorylation [pY397] in U87MG cells. The protocol: Cell-Based Assays for Inhibition of FAK Autophosphorylation: MiaPaCa2 and U87MG
The ability of compounds to inhibit FAK autophosphorylation was determined in a cell-based capture ELISA assay using U87MG glioblastoma cells (ATCC, Cat # HTB-14) and the FAK [pY397]ELISA kit from Invitrogen (KHO0441). The assay determines the ability of compounds to block endogenous autophosphorylation of FAK stimulated by fibronectin. Cells plated on fibronectin coated 96-well plate were incubated with compounds at various concentrations in the complete growth medium for 2 h. Cell lysates were then prepared and FAK protein was captured onto a FAK antibody-coated 96-well ELISA plate. The phosphotyrosine content of FAK protein was then monitored by quantitation of degree of binding of an antibody that recognizes only the phosphorylated FAK at Y397 within the captured protein.
Reagents Provided in Biosource FAK [pY397]
Cultures of U87MG cells growing in MEM (Earles) containing non-essential amino acids, sodium pyruvate (1 mM), […] (1%) and 10% fetal bovine serum were detached by trypsin-EDTA and suspended in cell growth medium. Cells were then plated onto fibronectin (600 ng/well)-coated 96-well flat bottom plates at 1.7×10^4 cells per well in 60 uL cell growth medium and incubated overnight at 37° C. in a CO2 incubator.
Compound dilutions were prepared from 10 mM DMSO stocks by dilution in cell growth medium, the final concentration of DMSO in the assay being 0.6%. […] The cells were then incubated with compounds at 37° C. for 2 h. The medium was removed by aspiration and cells were lysed by addition of 20 uL of ice-cold cell lysis buffer per well. The plates were kept on ice for 20 min and 50 uL of standard diluent was added to each well. 50 uL of cell lysate from each well was transferred to respective wells in an assay plate and 50 uL of detection antibody was added to all wells except H1-H6 which were no antibody control wells. Capture assay plates were incubated overnight in a cold room.
Following incubation of the cell lysates and detection antibodies in the ELISA plate, the wells were washed 4 times with 120 uL of wash buffer (1×), then 100 uL of diluted HRP conjugated antibody (1:100 dil in diluent) was added to each well, and the plate was incubated at RT for 30 min. The wells were then washed for 4 times with 120 uL of wash buffer (1×) and 100 uL of chromogen was added to each well and incubated in the dark at RT for 5-10 min. 100 uL of stop solution was added to each well and the absorbance measured at 450 nm, 0.1 s.
Comparison of the assay signals obtained in the presence of compound with those of positive and negative controls (cells with no compound and no detection antibody being added), allows degree of inhibition of phospho-FAK [Y397] to be determined over a range of compound concentrations. […] The assay as described above was modified to determine the effect of inclusion of 50% (v/v) mouse or human plasma. In this assay, the compound plate was prepared as 2× concentration in 100 uL of 100% mouse or human plasma, and 60 uL of this was added to 60 uL of culture medium and incubated at 37° C. incubator for 2 h. The rest of the assay was carried out as described above.
For orientation: In an ELISA, binding on a coated surface is turned into a signal by an enzyme label.

Setting [3] is: 50% (v/v) human plasma, mean IC50, read-out: FAK Activity Mechanistic (U87MG) HP.
Where [4] appears, read: no plasma present, mean IC50, read-out: FAK Activity Mechanistic (U87MG) NP.
The mark [5] stands for this setting: 50% (v/v) mouse plasma, mean IC50, read-out: FAK Activity Mechanistic (U87MG) MP.
Where [6] appears, read: mean IC50, [ATP] = 50uM, read-out: FAK Activity Biochemical OMNIA, [ATP] = 50uM.

T1 sequence (Q05397 whole entry): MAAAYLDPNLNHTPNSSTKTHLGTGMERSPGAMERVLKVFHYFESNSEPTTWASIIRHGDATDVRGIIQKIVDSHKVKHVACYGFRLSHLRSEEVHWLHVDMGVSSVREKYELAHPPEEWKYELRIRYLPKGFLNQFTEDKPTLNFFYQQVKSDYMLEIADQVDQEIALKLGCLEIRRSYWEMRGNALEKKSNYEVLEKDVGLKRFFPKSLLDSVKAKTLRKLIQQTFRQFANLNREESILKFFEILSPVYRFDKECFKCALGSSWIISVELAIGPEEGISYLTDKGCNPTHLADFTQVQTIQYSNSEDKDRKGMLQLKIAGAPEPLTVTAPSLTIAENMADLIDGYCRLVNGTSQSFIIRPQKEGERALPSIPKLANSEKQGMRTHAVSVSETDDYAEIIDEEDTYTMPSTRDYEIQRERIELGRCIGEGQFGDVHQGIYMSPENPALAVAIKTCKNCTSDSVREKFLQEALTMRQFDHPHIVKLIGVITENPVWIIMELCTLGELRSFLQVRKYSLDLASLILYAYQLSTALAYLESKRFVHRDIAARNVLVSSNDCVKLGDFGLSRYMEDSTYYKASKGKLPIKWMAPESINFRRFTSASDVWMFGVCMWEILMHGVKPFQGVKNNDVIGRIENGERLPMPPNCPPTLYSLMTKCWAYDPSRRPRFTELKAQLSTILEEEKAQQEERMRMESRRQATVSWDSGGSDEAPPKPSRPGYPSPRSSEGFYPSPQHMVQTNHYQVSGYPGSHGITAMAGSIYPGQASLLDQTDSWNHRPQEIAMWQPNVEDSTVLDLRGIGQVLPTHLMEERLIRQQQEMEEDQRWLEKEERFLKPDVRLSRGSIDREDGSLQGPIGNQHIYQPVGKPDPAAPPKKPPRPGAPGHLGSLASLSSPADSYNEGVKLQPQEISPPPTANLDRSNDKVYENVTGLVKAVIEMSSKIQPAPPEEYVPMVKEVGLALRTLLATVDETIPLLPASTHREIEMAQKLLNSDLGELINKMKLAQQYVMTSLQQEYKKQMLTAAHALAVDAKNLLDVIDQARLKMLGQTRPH
T2 sequence (Q05397 whole entry): as above

For `CCOP1(=O)Cc2ccc(c(OC)c2)Nc2ncc(C(F)(F)F)c(n2)Nc2ccc(nc2C(=O)NC)-c2cnn(c2)CC2(COC2)CO1` (racemic) [Example 44], the IC50 in test [1], in test [2] (setting [3]) and in test [2] (setting [4]) was < 0.4 µM throughout.
On to `CCOP1(=O)Cc2ccc(c(OC)c2)Nc2ncc(C(F)(F)F)c(n2)Nc2cc(F)c(c3c2C(=O)N(C)C3)-c2cnn(c2)CCCO1` (racemic) [Example 31], for which the IC50 in test [1] and in test [2] (setting [4]) was < 0.4 µM in each case.
As for `CCOP1(=O)Cc2ccc(c(OC)c2Cl)Nc2ncc(C(F)(F)F)c(n2)Nc2ccc(nc2C(=O)NC)-c2cnn(c2)CC2(COC2)CO1` (racemic) [Example 55], the IC50 in test [1] was < 0.4 µM; in test [2] (setting [3]) it was < 0.4 µM; in test [2] (setting [5]), 0.4 to 4 µM; in test [2] (setting [4]), < 0.4 µM.
Consider `CCOP1(=O)Cc2ccc(c(OC)c2)Nc2ncc(C(F)(F)F)c(n2)Nc2ccc(nc2C(=O)NC)-c2cn(nc2OC)CCCO1` (single isomer, unassigned) [Example 48A], for which the IC50 is < 0.4 µM in test [1], > 4 µM in test [2] (setting [3]), 0.4 to 4 µM in test [2] (setting [5]) and < 0.4 µM in test [2] (setting [4]).
Consider `CCOP1(=O)Cc2ccc(c(OC)c2)Nc2ncc(C(F)(F)F)c(n2)Nc2ccc(c3c2C(=O)N(C)C3)-c2cnn(c2)C[C@H](O)CO1` (mixture of isomers) [Example 5], for which the IC50 in test [1], in test [2] (setting [3]) and in test [2] (setting [4]) was < 0.4 µM each time.
As for `CCOP1(=O)Cc2ccc(c(OC)c2)Nc2ncc(C(F)(F)F)c(n2)Nc2ccc(nc2C(=O)NC)-c2cn(nc2C)CC2(COC2)CO1` (single isomer, unassigned) [Example 60A], the IC50 in test [1], in test [2] (setting [3]) and in test [2] (setting [4]) was < 0.4 µM each time.
Take `CNC(=O)c1nc2ccc1Nc1nc(ncc1C(F)(F)F)Nc1ccc(cc1OC)CP(C)(=O)OCCCn1cc-2cn1` (single isomer, unassigned) [Example 61B]: the IC50 in test [1] (setting [6]) was < 0.4 µM.
In the case of `CCOP1(=O)Cc2ccc(c(OC)c2)Nc2ncc(C(F)(F)F)c(n2)Nc2ccc(nc2C(=O)NC)-c2cnn(c2C)CCCO1` (racemic) [Example 35], the IC50 in test [1] (setting [6]), in test [2] (setting [3]) and in test [2] (setting [4]) was < 0.4 µM in each case.
In the case of `CCP1(=O)Cc2ccc(c(OC)c2)Nc2ncc(C(F)(F)F)c(n2)Nc2ccc(nc2C(=O)NC)-c2cnn(c2)CCCO1` (racemic) [Example 67], the IC50 in test [1] (setting [6]), in test [2] (setting [3]), in test [2] (setting [5]) and in test [2] (setting [4]) was < 0.4 µM throughout.
With `CCOP1(=O)Cc2ccc(c(OC)c2)Nc2ncc(C(F)(F)F)c(n2)Nc2ccc(nc2C(=O)NC)-c2cnn(c2)CCCCO1` (racemic) [Example 15], the IC50 in test [1], in test [2] (setting [3]) and in test [2] (setting [4]) was < 0.4 µM each time.
In the case of `CCOP1(=O)Cc2ccc(c(OC)c2)Nc2ncc(C(F)(F)F)c(n2)Nc2ccc(nc2C(=O)NC)-c2cnn(c2C)CCCO1` (single isomer, unassigned) [Example 35A], the IC50 is < 0.4 µM in test [1] (setting [6]), 0.4 to 4 µM in test [2] (setting [3]) and < 0.4 µM in test [2] (setting [4]).
Turning to `CCOP1(=O)Cc2ccc(c(OC)c2)Nc2ncc(C(F)(F)F)c(n2)Nc2ccc(c3c2C(=O)N(C)C3)-c2cnn(c2)CCCCO1` (racemic) [Example 17], the IC50 in test [1] (setting [6]), in test [2] (setting [3]) and in test [2] (setting [4]) was < 0.4 µM in each case.
On to `CCOP1(=O)Cc2ccc(c(OC)c2Cl)Nc2ncc(C(F)(F)F)c(n2)Nc2ccc(nc2C(=O)NC)-c2cnn(c2)CCCO1` (single isomer, unassigned) [Example 54A], for which the results for the IC50 in test [1], in test [2] (setting [3]) and in test [2] (setting [4]) were < 0.4 µM, > 4 µM and 0.4 to 4 µM, respectively.
For the compound `CCOP1(=O)Cc2ccc(c(OC)c2)Nc2ncc(C(F)(F)F)c(n2)Nc2ccc(nc2C(=O)NC)-c2cnn(c2)CC(C)CO1` (mixture of isomers) [Example 19], the IC50 in test [1] (setting [6]), in test [2] (setting [3]) and in test [2] (setting [4]) was < 0.4 µM throughout.
Consider `CCOP1(=O)Cc2ccc(c(OC)c2)Nc2ncc(C(F)(F)F)c(n2)Nc2ccc(nc2C(=O)NC)-c2cnn(c2)CC[C@H](C)O1` (mixture of isomers) [Example 70], for which the IC50 was < 0.4 µM in test [2] (setting [3]), 0.4 to 4 µM in test [2] (setting [5]) and < 0.4 µM in test [2] (setting [4]).
As for `CCOP1(=O)Cc2ccc(c(OC)c2)Nc2ncc(C(F)(F)F)c(n2)Nc2ccc(nc2C(=O)NC)-c2cnn(c2C)CCCO1` (single isomer, unassigned) [Example 35B], the IC50 in test [1] (setting [6]), in test [2] (setting [3]) and in test [2] (setting [4]) was < 0.4 µM throughout.
`CCOP1(=O)Cc2ccc(c(OC)c2)Nc2ncc(C(F)(F)F)c(n2)Nc2ccc(nc2C(=O)NC)-c2cn(nc2C)CCCO1` (racemic) [Example 34]: the IC50 in test [1] (setting [6]), in test [2] (setting [3]) and in test [2] (setting [4]) was < 0.4 µM throughout.
`CCOP1(=O)Cc2ccc(c(OC)c2)Nc2ncc(C(F)(F)F)c(n2)Nc2ccc(cc2C(=O)NC)-c2cnn(c2)CCCO1` (racemic) [Example 4]: the IC50 in test [1], in test [2] (setting [3]) and in test [2] (setting [4]) was < 0.4 µM each time.
With `CCOP1(=O)Cc2ccc(c(OC)c2)Nc2ncc(C(F)(F)F)c(n2)Nc2ccc(nc2C(=O)NC)-c2c(C)nn(c2C)CCCO1` (racemic) [Example 43], the results for the IC50 in test [1] (setting [6]), in test [2] (setting [3]) and in test [2] (setting [4]) were < 0.4 µM, 0.4 to 4 µM and < 0.4 µM, respectively.
Take `CNC(=O)c1nc2ccc1Nc1nc(ncc1C(F)(F)F)Nc1ccc(cc1OC)CP(=O)(OC(C)C)OCCCn1cc-2cn1` (single isomer, unassigned) [Example 72A]: the IC50 in test [2] (setting [3]) was 0.4 to 4 µM; in test [2] (setting [5]) it was < 0.4 µM; in test [2] (setting [4]), < 0.4 µM.
Consider `CNC(=O)c1nc2ccc1Nc1nc(ncc1C(F)(F)F)Nc1ccc(cc1OC)CP(=O)(OC(C)C)OCCCn1cc-2cn1` (racemic) [Example 72], for which the IC50 in test [2] (setting [3]), in test [2] (setting [5]) and in test [2] (setting [4]) was < 0.4 µM each time.
As for `CCOP1(=O)Cc2ccc(c(OC)c2)Nc2ncc(C(F)(F)F)c(n2)Nc2ccc(nc2C(=O)NC)-c2cnn(c2)CC2(CC2)CO1` (racemic) [Example 63], the IC50 in test [2] (setting [3]) and in test [2] (setting [4]) was < 0.4 µM in each case.
With `CCP1(=O)Cc2ccc(c(OC)c2)Nc2ncc(C(F)(F)F)c(n2)Nc2ccc(nc2C(=O)NC)-c2cnn(c2)CC2(CC2)CO1` (racemic) [Example 71], the IC50 in test [2] (setting [3]), in test [2] (setting [5]) and in test [2] (setting [4]) was < 0.4 µM in each case.
Take `CCOP1(=O)Cc2ccc(c(OC)c2)Nc2ncc(C(F)(F)F)c(n2)Nc2ccc(nc2C(=O)NC)-c2cnn(c2)CC[C@@H](C)O1` (mixture of isomers) [Example 69]: the IC50 in test [2] (setting [3]) and in test [2] (setting [4]) was < 0.4 µM each time.

Values taken from patent publication US9133224B2, “Macrocyclic kinase inhibitors” (OSI Pharmaceuticals, LLC, priority 2010, dated 2015).
